{"source": "patent US5843399A", "about": "“DTPA monoamides for MRI” (Schering Aktiengesellschaft, priority 1990, dated 1998)", "key": {"stomach": {"system": "stomach", "details": "i.v., 0.1 mmol of Gd/kg, 60 minutes after administration (image no. 2)", "experimental": "(§1) A cell suspension of the Brown-Pearce tumor was injected in the liver in a test animal (rat, strain lew/mol, female, 155 g) two weeks before the test. In the method used, about 2 weeks were required until the tumor had reached the size of 0.5-1 cm^3 desired for the test.\n(§2) For the test, the animal was anesthetized (Rompun+Ketavet) and then a catheter was placed in the caudal vein for the administration of the contrast medium.\nThe imaging took place in an MRI experimental device of the General Electric company (field strength 2 teslas). The first image was made without contrast media with a T1 -weighted spin echo sequence (TR=400 msec, TE=20 msec, layer thickness 3 mm). […] Then, the administration of the contrast medium [gadolinium complex of 3,6-bis(carboxymethyl)-9-(10-carboxydecylcarbamoylmethyl)-3,6,9-triazaundecanedioic acid, Example 1b)] took place through the vein catheter with a dose of 0.1 mmol of Gd/kg (concentration of the solution of 0.05 mmol/ml in 0.9% NaCl, i.e. a clinically usual dose, e.g., in the case of the commercial preparation Magnevist®). […] 2 was taken 60 minutes after the administration of the contrast medium under conditions which were otherwise the same as image no."}, "liver": {"system": "liver", "details": "p.o., 0.5 mmol of Gd/kg", "experimental": "In another animal (rat, strain Lew/mol, female, 200 g), the same contrast medium was administered orally with a p.o. sample in a dose of 0.5 mmol of Gd/kg (concentration of the solution 0.033 mmol of Gd/ml, in 0.9% NaCl). The animal was anesthetized 30 minutes after the administration and examined under the same conditions as described in the first case."}, "[1]": {"system": "liver / Brown-Pearce tumor", "assay": "In vivo NMR diagnosis, intravenous, liver with Brown-Pearce tumor", "parameters": "species or system rat", "details": "i.v., 0.1 mmol of Gd/kg, 60 minutes after administration", "experimental": "as §1, §2\nThe imaging took place in an MRI experimental device of the General Electric company (field strength 2 teslas). The first image was made without contrast media with a T1 -weighted spin echo sequence (TR=400 msec, TE=20 msec, layer thickness 3 mm). […] 2 was taken 60 minutes after the administration of the contrast medium under conditions which were otherwise the same as image no."}, "human serum albumin": {"system": "human serum albumin", "assay": "Association with human serum albumin in aqueous solution", "assay_type": "binding"}}, "data": [{"molecule": "O=C(O)CCCCCCCCCCNC(=O)CN(CCN(CCN(CC(=O)O)CC(=O)O)CC(=O)O)CC(=O)O.[Gd]", "note": "[Example 1b, Gadolinium complex of 3,6-bis(carboxymethyl)-9-(10-carboxydecylcarbamoylmethyl)-3,6,9-triazaundecanedioic acid]", "values": [{"measurement": "enhancement of the stomach", "setting": "stomach", "value": "very strong enhancement of the stomach"}, {"measurement": "signal in the liver, 45 minutes", "setting": "liver; 45 minutes after administration (image 3)", "value": "a slight increase in the signal in the liver"}, {"measurement": "enhancement in the liver, 180 minutes", "setting": "liver; 180 minutes after administration (image 4)", "value": "A marked enhancement in the liver"}, {"measurement": "concentration of the contrast medium in liver and tumor", "setting": "[1]", "value": "concentrated in the liver to a great extent, but, not in the tumor"}, {"measurement": "appearance of the liver parenchyma in MRI image", "setting": "[1]; 2 teslas, T1-weighted spin echo", "value": "very bright"}, {"measurement": "appearance of the tumor in MRI image", "setting": "[1]; Brown-Pearce tumor in liver", "value": "considerably darker in comparison with the surrounding liver tissue"}]}, {"molecule": "CCCCCCC(CCCCCCCCCCC(=O)O)NC(=O)CN(CCN(CCN(CC(=O)O)CC(=O)O)CC(=O)O)CC(=O)O.[Gd]", "note": "(stereo not shown) [Example 4b, Gadolinium complex of 3,6-bis(carboxymethyl)-9-(11-carboxy-1-n-hexyl-undecylcarbamoylmethyl)-3,6,9-triazaundecanedioic acid]", "values": [{"measurement": "association with human serum albumin", "setting": "human serum albumin", "value": "forms associates in aqueous solution with human serum albumin"}]}]}
